From publication PMC6467533 (Chembiochem : a European journal of chemical biology, 2018)
Converted amounts (≈) assume the structure as drawn.

Columns and labels:
Mtx TPP = Mtx TPP (Mycobacterium triplex, UniProt A0A024JUE5); assay: biochemical; set-up: species or system M. triplex
Mtb TPP = Mtb TPP (Mycobacterium tuberculosis, UniProt P9WFZ5); assay type: biochemical
Mlt TPP = assay type: biochemical, M. lentiflavum
E. coli TPP = details: cited from earlier work
M. aurum = details: cited from earlier work
[1] = tested on: M. smegmatis biofilm formation; details: cited from earlier work
Ag85C = details: cited from earlier work
Mtb = details: cited from earlier work

Sequence of Mtx TPP (A0A024JUE5 1-354): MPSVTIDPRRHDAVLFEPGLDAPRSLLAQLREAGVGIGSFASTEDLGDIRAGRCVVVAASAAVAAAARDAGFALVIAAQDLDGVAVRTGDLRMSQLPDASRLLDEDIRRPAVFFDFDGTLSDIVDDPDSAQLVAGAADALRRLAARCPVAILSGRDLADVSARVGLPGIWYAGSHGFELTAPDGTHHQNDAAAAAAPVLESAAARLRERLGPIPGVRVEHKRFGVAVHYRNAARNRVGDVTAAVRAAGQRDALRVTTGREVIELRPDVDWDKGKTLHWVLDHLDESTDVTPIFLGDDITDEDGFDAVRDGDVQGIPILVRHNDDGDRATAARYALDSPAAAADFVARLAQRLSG
Sequence of Mtb TPP (P9WFZ5 whole entry, looked up): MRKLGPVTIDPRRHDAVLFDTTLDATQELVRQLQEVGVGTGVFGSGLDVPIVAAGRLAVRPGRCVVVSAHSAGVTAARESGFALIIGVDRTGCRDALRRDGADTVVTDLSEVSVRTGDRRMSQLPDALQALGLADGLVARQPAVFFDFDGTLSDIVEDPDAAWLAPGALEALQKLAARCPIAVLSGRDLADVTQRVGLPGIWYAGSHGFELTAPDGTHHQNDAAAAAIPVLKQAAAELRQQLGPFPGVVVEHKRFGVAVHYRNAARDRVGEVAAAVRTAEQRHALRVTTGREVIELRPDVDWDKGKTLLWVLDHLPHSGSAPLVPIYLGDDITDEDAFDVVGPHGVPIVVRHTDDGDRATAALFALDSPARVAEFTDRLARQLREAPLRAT

O=P(O)(O)CC[C@H]1O[C@H](O[C@H]2O[C@H](CO)[C@@H](O)[C@H](O)[C@H]2O)[C@H](O)[C@@H](O)[C@@H]1O [TEP, 6-Deoxy-6-(methylenephosphonic acid)-α,α’-trehalose]
IC50 (Mtx TPP): 1960 ± 261 µM

O=P(O)(O)C[C@H]1O[C@H](O[C@H]2O[C@H](CO)[C@@H](O)[C@H](O)[C@H]2O)[C@H](O)[C@@H](O)[C@@H]1O [TMP, 6-Deoxy-6-(phosphonic acid)-α,α’-trehalose]
IC50 (Mtx TPP): 288 ± 32 µM

OCC1=C[C@@H](N[C@H]2C[C@H](CO)[C@@H](O[C@H]3O[C@@H](CO)[C@H](O)[C@@H](O)[C@@H]3O)[C@H](O)[C@H]2O)[C@H](O)[C@@H](O)[C@@H]1O [Validamycin A]
IC50 against Mtb TPP (Mtb TPP): unexpectedly high | IC50 against Mlt TPP (Mlt TPP): unexpectedly high | IC50 against Mtx TPP (Mtx TPP): unexpectedly high | inhibition of E. coli TPP (E. coli TPP): completely inhibit

[N-]=[N+]=NC[C@H]1O[C@H](O[C@H]2O[C@H](CO)[C@@H](O)[C@H](O)[C@H]2O)[C@H](O)[C@@H](O)[C@@H]1O [6-azido-6-deoxy-α,α’-trehalose]
MIC, growth of M. aurum (M. aurum): 200 mg/L | MIC, M. smegmatis biofilm formation [1]: 50 to 100 µM | inhibition of Ag85C activity (Ag85C): inhibit Ag85C activity

CC1OC(OC2OC(CO)C(O)C(O)C2O)C(O)C(O)C1O (stereo not drawn) [6-deoxy-α,α’-trehalose]
MIC, M. smegmatis biofilm formation [1]: 50 to 100 µM

OCC1OC(OC2OC(CF)C(O)C(O)C2O)C(O)C(O)C1O (stereo not drawn) [6-fluoro-6-deoxy-α,α’-trehalose]
MIC against Mtb (Mtb): 200 mg/L (≈ 581 µM) | MIC, M. smegmatis biofilm formation [1]: 50 to 100 µM

OC[C@H]1O[C@H](O[C@H]2O[C@H](CC3CO3)[C@@H](O)[C@H](O)[C@H]2O)[C@H](O)[C@@H](O)[C@@H]1O (stereo partly drawn) [Compound 7, 6-deoxy-6-oxiranyl-α,α’-trehalose]
inhibition of Mtb TPP (Mtb TPP): no inhibition | inhibition of Mlt TPP (Mlt TPP): no inhibition | inhibition of Mtx TPP (Mtx TPP): no inhibition

OC[C@H]1O[C@H](O[C@H]2O[C@H](CBr)[C@@H](O)[C@H](O)[C@H]2O)[C@H](O)[C@@H](O)[C@@H]1O [6-bromo-6-deoxy-α,α’-trehalose]
MIC against Mtb (Mtb): 200 mg/L (≈ 494 µM)
